Measurements from ChEMBL document CHEMBL1201862, “PubChem BioAssay data set” (2004).
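Five concentrations, 48 hours, 96-well plates. GI50 is the concentration that inhibits growth by half.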 Activity calls are given as the source filed them. Cut-off read from the data, not from the text of the source: active = GI50 up to about 1.1 µM and inactive = higher.

Experiments:
Assay in all cases: NCI tumour cell line growth inhibition, 48 h
DMS-273 = system: DMS-273
KM-20L2 = system: KM-20L2
LXFL 529 = system: LXFL 529
RXF 631 = system: RXF 631

Measured: GI50

Oc1ccc([Te]CCNCC[Te]c2ccc(O)cc2)cc1
inactive: DMS-273 18.2 µM | KM-20L2 14.4 µM | LXFL 529 3.41 µM | RXF 631 6.05 µM

Nc1nc(OCc2ccccc2)c2nc[nH]c2n1 [6-O-BENZYLGUANINE]
inactive: DMS-273 93.1 µM | KM-20L2 85.7 µM | LXFL 529 93.3 µM | RXF 631 69.7 µM
